This is an account of results in paper PMC9249674, “A small-molecule Skp1 inhibitor elicits cell death by p53-dependent mechanism” (iScience, 2022).

Assay [1] addresses T1, Skp1-ΔSkp2^F−box-peptide interaction (Homo sapiens, UniProt P63208).
T1 construct: recombinantly purify intact (Skp1^WT) and truncate (ΔSkp1^1−140; lacking H8-helix) forms of Skp1; His6; made in house; host or cells: Escherichia coli BL21 (DE3)
Description: FP-based in vitro competition assay. Format: binding. Particulars: for Ki: calculated from IC50 with Ki calculator. As to the method: FP measurements were performed using an EnVision multilabel Reader (Perkin Elmer). […] Lyophilized F-box-FAM peptide was initially dissolved in a Tris buffer (20 mM Tris-HCl pH 9.0, 150 mM NaCl, 2 mM DTT), and then a stock solution of 100 μM was prepared by subsequent dilutions in a FP buffer (20 mM Tris-HCl pH 8.0, 150 mM NaCl, 2 mM DTT, 5% (v/v) glycerol, 0.001% (v/v) Triton X-100). Specific controls groups included free F-box-FAM (tracer), bound F-box-FAM in the presence of protein (Skp1^WT or ΔSkp1^1−140), and FP buffer for every measurement, allowing accurate estimation of specific polarization.
The selected subset of compounds were initially assayed at final concentration of 200 μM. The compounds were incubated at room temperature with Skp1^WT for 1 hr, followed by the addition of the tracer. […] After incubation for another 2 hrs, FP signals was measured on an EnVision multilabel Reader. The FP response was measured in quadruplicates with controls including free F-box-FAM (tracer), bound Skp1^WT-F-box-FAM, and FP buffer. The resultant FP values were plotted as bar graphs using ORIGIN Lab software.
For gradient FP assay, protein samples were mixed with an appropriate concentrations of ligand over the range of several folds. […] The IC50 value of the compound in the gradient-concentration assay was determined with nonlinear regression and fitting using the following equation in GraphPad Prism® v6.0 (San Diego, CA). Y = Bottom + (Top – Bottom)/(1 + 10^X−LogIC50). […] In short, the relationship between the IC50 of the inhibitor and the Ki of the inhibitor depends on the KD of the fluorescent ligand and the concentration of the receptor.

For a further assay, the system named is H358 cells. Description: Caspase-Glo 3/7 activity. The assay is classed as cell-based. The note with it: dose- and time-dependent treatment. As to the method:
The activities of caspase-3/7, −8 and −9 were measured using Caspase-Glo® 3/7,8, and 9 assay kits (Promega, Madison, WI, USA) according to the manufacturer’s protocol. Briefly, the cells were plated over-night in a white 384 well microplate, and then treated as indicated with Z0933M. After treatment, 25 μL of each caspase substrate was added and incubated at room temperature for 30 min. Upon activation of caspase in the apoptotic cells, the substrate will give a luminescence signal after cleavage of the aminoluciferin-labelled synthetic tetrapeptide. Luminescent signals were detected using an EnSpire multimode plate reader (PerkinElmer). For inhibitor interventions and Skp1 overexpression, the experiments were performed in 96 well format.

For a further assay, the target named is T2, Skp1^F139A (Homo sapiens, UniProt P63208, F139A).
T2 construct: His6; made in house; host or cells: Escherichia coli BL21 (DE3)
Description: LC-MS/MS analysis of in vitro binding. Particulars: Skp1^F139A mutant, overnight incubation.

For a further assay, the target named is T3, Skp1^WT (Homo sapiens, UniProt P63208).
T3 construct: recombinantly purify intact (Skp1^WT) and truncate (ΔSkp1^1−140; lacking H8-helix) forms of Skp1; His6; made in house; host or cells: Escherichia coli BL21 (DE3)
Description: SPRi assay. Format: binding. As to the method: Freshly deposited gold coated standard SPRi chips/slides (Plexera, LLC) were cleaned, and compound(s) at 10 mM concentration in 100% DMSO were spotted on the chips using a micropipette. After this, the slides were left for complete evaporation of DMSO (under vacuum) at room temperature for 2 hrs. After printing, the slides were exposed to UV irradiation 2.4 J/cm^2 (365 nm) in a UV chamber (Amersham life science). The slides were subsequently washed with DMSO, ethanol, and finally with distilled water for 15 minutes (ultrasonically), respectively, to remove non-covalently bound compounds. After drying with nitrogen, the slides were assembled with flow cell and then mounted on SPRi instrument for measurement, or stored at 4°C to be used for later experiments.
All the experiments were carried out using the PlexArray® HT system (Plexera, LLC), which is based on surface plasmon resonance imaging. Oval regions of interests (ROIs) were set as 9 pixels × 7 pixels area in imaging area. ROIs of vehicle (DMSO) were used as controls for measurement of specific signals. All samples were injected with an association and dissociation flow rate of 3 μL s^−1 and at 25°C. A 1:3 mixture of glycine. HCL (pH 4.2) and 0.5% (v/v) SDS, respectively, was used to regenerate the surface and remove bound proteins from the small molecules enabling the sensor chip to be reused for additional analyte injections. […]

The test system of another assay is Skp1-ΔF-box complex. Description: LC-MS/MS analysis of in vitro binding. The note with it: overnight incubation.
Another assay concerns the target recombinant GST (Schistosoma japonicum, UniProt P08515). Description: LC-MS/MS analysis of in vitro binding, negative control protein.

T1 sequence (P63208 whole entry, stated change not applied, the tested form may be a part): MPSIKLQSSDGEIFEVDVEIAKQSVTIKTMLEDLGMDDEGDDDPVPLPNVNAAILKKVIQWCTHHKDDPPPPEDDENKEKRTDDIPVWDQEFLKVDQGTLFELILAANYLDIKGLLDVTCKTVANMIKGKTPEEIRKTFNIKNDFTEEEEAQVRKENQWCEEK
T3 sequence (P63208 whole entry, the tested form may be a part): as the sequence (P63208 whole entry, stated change not applied, the tested form may be a part) above
Chain of recombinant GST (P08515 2-218 limits assumed): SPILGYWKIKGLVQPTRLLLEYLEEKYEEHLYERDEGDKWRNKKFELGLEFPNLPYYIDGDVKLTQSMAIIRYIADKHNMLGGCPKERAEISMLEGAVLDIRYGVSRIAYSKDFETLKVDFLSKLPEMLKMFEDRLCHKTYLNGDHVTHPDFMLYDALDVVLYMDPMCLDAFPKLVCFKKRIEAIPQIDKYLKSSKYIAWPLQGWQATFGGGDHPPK
T2 sequence (P63208 whole entry F139A): as the sequence (P63208 whole entry, stated change not applied, the tested form may be a part) above, with F139A counted along it

With `Nc1ccc(-c2nc3ccccc3c3[nH]c4ccccc4c23)cc1` [Z0933M], the “inhibition of Skp1-ΔSkp2^F−box-peptide interaction” value in assay [1] (200 μM compound, 25 μM Skp1^WT, 500 nM tracer) is reported as “almost completely disrupted”. For the same compound, the inhibition constant (Ki) (commonly the dissociation constant of the complex between target and ligand, obtained from inhibition or displacement) in assay [1] was 231 ± 18 nM; in assay [1] (figure) it was approximately 231 nM. Further, the IC50 (in general, the point on the concentration scale where inhibition reaches its midpoint) in assay [1] (dose-response FP, Skp1^WT 25 μM, tracer 500 nM) is approximately 25 µM. Also, in the assay on H358 cells, the “caspase 3/7 activity” value is “failed to do so”. Moreover, the “binding by LC-MS/MS” value on Skp1^F139A is “markedly reduced”; in the assay on Skp1-ΔF-box complex, “robust binding”. For the same compound, the Kd (as a rule, the constant that tells how readily two partners part at equilibrium) is 54.7 ± 6.68 nM at Skp1^WT (SPRi, Skp1^WT) and approximately 54 nM at Skp1^WT (as given in the summary). For the same compound, the “presence in mass spectra (non-specific binding)” value at recombinant GST is “absent”.
